Measured values reported in patent publication US20240262845A1, “PYRIDINIUM SALTS, METHODS OF MAKING, AND METHODS OF USE” (UNIVERSITY OF WYOMING, priority 2023, published 2024).
Where a name gives a salt, the structure may show the parent alone.

Biological target: T1, bovine carbonic anhydrase II (Bos taurus, UniProt P00921)
T1 construct: Carbonic Anhydrase Isozyme II from bovine erythrocytes; purchased Sigma Aldrich; host or cells: bovine erythrocytes
Assay: Photochemical labeling of bovine carbonic anhydrase II with pyridinium salt (General Procedure B, LC/MS)
Type: biochemical
Conditions: trypsin digest
Protocol: General Procedure B: Photochemical Irradiation of Peptides and Proteins: To a 2 mL Pyrex LC/MS vial (Thermo model #03-391-39) were sequentially added solutions containing the desired biomolecule, glutathione (GSH), pyridinium salt, and ammonium acetate (NH4OAc). The resulting solution was diluted to a final volume of 500 μL and then sparged using nitrogen for a minimum of 30 minutes prior to irradiation. The actively sparging solution was then placed in an EvoluChem™ PhotoRedOx Box photoreactor that was equipped with a Kessil, PR160 427 nm LED Lamp and was then irradiated (100% lamp intensity) for the designated time at room temperature while maintaining active sparging. The resultant reaction mixture was then analyzed directly by LC/MS. […]
Labeling of Bovine Carbonic Anhydrase II with Pyridinium Salt 2a (Bovine Carbonic Anhydrase II-2a Conjugate). […] The reaction mixture was directly analyzed by LC/MS using method A and was estimated to have proceeded with 34% conversion and a 4.5:1 mono:di labeled ratio. […]
General Trypsin Digest Protocol B: For non-cystine bridged labeled proteins, a standard trypsin digest was modified as follows. […] The digested mixture was analyzed directly by LC/MS and MS/MS using method C. […]

T1 sequence (P00921 whole entry): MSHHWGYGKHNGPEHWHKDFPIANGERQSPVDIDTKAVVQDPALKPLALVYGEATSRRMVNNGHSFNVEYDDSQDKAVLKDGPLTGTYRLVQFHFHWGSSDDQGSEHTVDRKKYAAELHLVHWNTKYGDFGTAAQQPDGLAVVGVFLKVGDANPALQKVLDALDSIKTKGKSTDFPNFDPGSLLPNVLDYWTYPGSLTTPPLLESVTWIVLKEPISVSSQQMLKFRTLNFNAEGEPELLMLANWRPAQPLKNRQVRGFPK

SMILES: COC(=O)N(C)[n+]1c(C)cc(-c2ccc3cc(OC)ccc3c2)cc1C [pyridinium salt 2a, 1-((methoxycarbonyl)(methyl)amino)-4-(6-methoxynapthalen-2-yl)-2,6-dimethylpyridin-1-ium tetrafluoroborate]
- Modified Trp: Trp-243
